Species on record: Rattus norvegicus
Assay: DrugMatrix - Regimen: Daily Repeat
Type: toxicity, organism-based, Sprague-Dawley
Parameters: regimen Daily Repeat, gender Male, age 6-8 weeks
Settings: in vivo, po, route oral GAVAGE, vehicle .5 % CMC; for ABSOLUTE BASOPHIL / ABSOLUTE EOSINOPHIL / ABSOLUTE LYMPHOCYTE / ABSOLUTE MONOCYTE / ABSOLUTE SEGMENTED NEUTROPHIL / BASOPHIL / EOSINOPHIL / ERYTHROCYTE COUNT / HEMATOCRIT / HEMOGLOBIN / LEUKOCYTE COUNT / LYMPHOCYTE / MEAN CORPUSCULAR HEMOGLOBIN / MEAN CORPUSCULAR HEMOGLOBIN CONCENTRATION / MEAN CORPUSCULAR VOLUME / MONOCYTE / NEUTROPHIL / NUCLEATED RED BLOOD CELLS / PLATELET COUNT: tissue Blood; for ALANINE AMINOTRANSFERASE / ALBUMIN / ALKALINE PHOSPHATASE / ASPARTATE AMINOTRANSFERASE / BLOOD UREA NITROGEN / CARBON DIOXIDE / CHLORIDE / CHOLESTEROL / CREATINE PHOSPHOKINASE / CREATININE / GLUCOSE / LACTATE DEHYDROGENASE / LIPASE / PHOSPHORUS / POTASSIUM / SODIUM / TOTAL BILIRUBIN / TOTAL PROTEIN / URIC ACID: tissue Plasma
[1] = 88 mg/kg, 72 h, dose level Low, time 3 day
[2] = 88 mg/kg, 120 h, dose level Low, time 5 day
[3] = 1500 mg/kg, 72 h, dose level High, time 3 day
[4] = 1500 mg/kg, 120 h, dose level High, time 5 day

NC(=O)c1cnccn1 [PYRAZINAMIDE]
ABSOLUTE BASOPHIL [1]: 0 CELLS/uL | ABSOLUTE EOSINOPHIL [1]: 30.67 CELLS/uL | ABSOLUTE LYMPHOCYTE [1]: 12250.33 CELLS/uL | ABSOLUTE MONOCYTE [1]: 470.67 CELLS/uL | ABSOLUTE SEGMENTED NEUTROPHIL [1]: 1315 CELLS/uL | BASOPHIL [1]: 0% | EOSINOPHIL [1]: 0.33% | ERYTHROCYTE COUNT [1]: 5.55 x10E6/uL | HEMATOCRIT [1]: 35.93% | HEMOGLOBIN [1]: 13.4 G/DL | LEUKOCYTE COUNT [1]: 14.07 x10E3/uL | LYMPHOCYTE [1]: 87% | MEAN CORPUSCULAR HEMOGLOBIN [1]: 24.2 pg | MEAN CORPUSCULAR HEMOGLOBIN CONCENTRATION [1]: 37.27 G/DL | MEAN CORPUSCULAR VOLUME [1]: 64.83 fL | MONOCYTE [1]: 3% | NEUTROPHIL [1]: 9.67% | NUCLEATED RED BLOOD CELLS [1]: 0 /100WBC | PLATELET COUNT [1]: 1204.33 x10E3/uL | ALANINE AMINOTRANSFERASE [1]: 44.33 u/L | ALBUMIN [1]: 4.73 G/DL | ALKALINE PHOSPHATASE [1]: 375 u/L | ASPARTATE AMINOTRANSFERASE [1]: 85.33 u/L | BLOOD UREA NITROGEN [1]: 14.67 mg/dL | CARBON DIOXIDE [1]: 22.67 mmol/L | CHLORIDE [1]: 102.67 MEQ/L | CHOLESTEROL [1]: 74.33 mg/dL | CREATINE PHOSPHOKINASE [1]: 282.33 u/L | CREATININE [1]: 0.22 mg/dL | GLUCOSE [1]: 147 mg/dL | LACTATE DEHYDROGENASE [1]: 427 u/L | LIPASE [1]: 10 u/L | PHOSPHORUS [1]: 12.4 mg/dL | POTASSIUM [1]: 7.05 MEQ/L | SODIUM [1]: 145.67 MEQ/L | TOTAL BILIRUBIN [1]: 0.27 mg/dL | TOTAL PROTEIN [1]: 5.97 G/DL | URIC ACID [1]: 2.43 mg/dL | ABSOLUTE BASOPHIL [2]: 0 CELLS/uL | ABSOLUTE EOSINOPHIL [2]: 154 CELLS/uL | ABSOLUTE LYMPHOCYTE [2]: 11236 CELLS/uL | ABSOLUTE MONOCYTE [2]: 491 CELLS/uL | ABSOLUTE SEGMENTED NEUTROPHIL [2]: 1385.67 CELLS/uL | BASOPHIL [2]: 0% | EOSINOPHIL [2]: 1% | ERYTHROCYTE COUNT [2]: 5.75 x10E6/uL | HEMATOCRIT [2]: 35.9% | HEMOGLOBIN [2]: 13.43 G/DL | LEUKOCYTE COUNT [2]: 13.27 x10E3/uL | LYMPHOCYTE [2]: 85% | MEAN CORPUSCULAR HEMOGLOBIN [2]: 23.4 pg | MEAN CORPUSCULAR HEMOGLOBIN CONCENTRATION [2]: 37.47 G/DL | MEAN CORPUSCULAR VOLUME [2]: 62.43 fL | MONOCYTE [2]: 3.67% | NEUTROPHIL [2]: 10.33% | NUCLEATED RED BLOOD CELLS [2]: 0.33 /100WBC | PLATELET COUNT [2]: 1159.33 x10E3/uL | ALANINE AMINOTRANSFERASE [2]: 36 u/L | ALBUMIN [2]: 4.27 G/DL | ALKALINE PHOSPHATASE [2]: 325.33 u/L | ASPARTATE AMINOTRANSFERASE [2]: 95.33 u/L | BLOOD UREA NITROGEN [2]: 20 mg/dL | CARBON DIOXIDE [2]: 24 mmol/L | CHLORIDE [2]: 108.33 MEQ/L | CHOLESTEROL [2]: 66 mg/dL | CREATINE PHOSPHOKINASE [2]: 516 u/L | CREATININE [2]: 0.22 mg/dL | GLUCOSE [2]: 133.67 mg/dL | LACTATE DEHYDROGENASE [2]: 846.33 u/L | LIPASE [2]: 9 u/L | PHOSPHORUS [2]: 11.63 mg/dL | POTASSIUM [2]: 5.99 MEQ/L | SODIUM [2]: 145.83 MEQ/L | TOTAL BILIRUBIN [2]: 0.13 mg/dL | TOTAL PROTEIN [2]: 6.07 G/DL | URIC ACID [2]: 1.4 mg/dL | ABSOLUTE BASOPHIL [3]: 0 CELLS/uL | ABSOLUTE EOSINOPHIL [3]: 133 CELLS/uL | ABSOLUTE LYMPHOCYTE [3]: 8872.33 CELLS/uL | ABSOLUTE MONOCYTE [3]: 166.33 CELLS/uL | ABSOLUTE SEGMENTED NEUTROPHIL [3]: 1061.67 CELLS/uL | BASOPHIL [3]: 0% | EOSINOPHIL [3]: 1.33% | ERYTHROCYTE COUNT [3]: 5.4 x10E6/uL | HEMATOCRIT [3]: 35.87% | HEMOGLOBIN [3]: 13.37 G/DL | LEUKOCYTE COUNT [3]: 10.23 x10E3/uL | LYMPHOCYTE [3]: 86.67% | MEAN CORPUSCULAR HEMOGLOBIN [3]: 24.8 pg | MEAN CORPUSCULAR HEMOGLOBIN CONCENTRATION [3]: 37.33 G/DL | MEAN CORPUSCULAR VOLUME [3]: 66.4 fL | MONOCYTE [3]: 1.67% | NEUTROPHIL [3]: 10.33% | NUCLEATED RED BLOOD CELLS [3]: 0 /100WBC | PLATELET COUNT [3]: 1418.67 x10E3/uL | ALANINE AMINOTRANSFERASE [3]: 48.33 u/L | ALBUMIN [3]: 4.13 G/DL | ALKALINE PHOSPHATASE [3]: 315.67 u/L | ASPARTATE AMINOTRANSFERASE [3]: 85.67 u/L | BLOOD UREA NITROGEN [3]: 16.67 mg/dL | CARBON DIOXIDE [3]: 28 mmol/L | CHLORIDE [3]: 103.33 MEQ/L | CHOLESTEROL [3]: 73 mg/dL | CREATINE PHOSPHOKINASE [3]: 136.33 u/L | CREATININE [3]: 0.15 mg/dL | GLUCOSE [3]: 153 mg/dL | LACTATE DEHYDROGENASE [3]: 76 u/L | LIPASE [3]: 9 u/L | PHOSPHORUS [3]: 10.47 mg/dL | POTASSIUM [3]: 5.73 MEQ/L | SODIUM [3]: 146 MEQ/L | TOTAL BILIRUBIN [3]: 0.23 mg/dL | TOTAL PROTEIN [3]: 5.77 G/DL | URIC ACID [3]: 1.47 mg/dL | ABSOLUTE BASOPHIL [4]: 0 CELLS/uL | ABSOLUTE EOSINOPHIL [4]: 88 CELLS/uL | ABSOLUTE LYMPHOCYTE [4]: 11940 CELLS/uL | ABSOLUTE MONOCYTE [4]: 519 CELLS/uL | ABSOLUTE SEGMENTED NEUTROPHIL [4]: 1353 CELLS/uL | BASOPHIL [4]: 0% | EOSINOPHIL [4]: 0.67% | ERYTHROCYTE COUNT [4]: 6.59 x10E6/uL | HEMATOCRIT [4]: 40.1% | HEMOGLOBIN [4]: 14.83 G/DL | LEUKOCYTE COUNT [4]: 13.9 x10E3/uL | LYMPHOCYTE [4]: 86% | MEAN CORPUSCULAR HEMOGLOBIN [4]: 22.5 pg | MEAN CORPUSCULAR HEMOGLOBIN CONCENTRATION [4]: 37.03 G/DL | MEAN CORPUSCULAR VOLUME [4]: 60.83 fL | MONOCYTE [4]: 3.67% | NEUTROPHIL [4]: 9.67% | NUCLEATED RED BLOOD CELLS [4]: 0 /100WBC | PLATELET COUNT [4]: 1142.67 x10E3/uL | ALANINE AMINOTRANSFERASE [4]: 56.33 u/L | ALBUMIN [4]: 4.53 G/DL | ALKALINE PHOSPHATASE [4]: 308 u/L | ASPARTATE AMINOTRANSFERASE [4]: 93.33 u/L | BLOOD UREA NITROGEN [4]: 16.67 mg/dL | CARBON DIOXIDE [4]: 25.33 mmol/L | CHLORIDE [4]: 104.5 MEQ/L | CHOLESTEROL [4]: 70.67 mg/dL | CREATINE PHOSPHOKINASE [4]: 254.33 u/L | CREATININE [4]: 0.17 mg/dL | GLUCOSE [4]: 185.67 mg/dL | LACTATE DEHYDROGENASE [4]: 177.33 u/L | LIPASE [4]: 9 u/L | PHOSPHORUS [4]: 12.47 mg/dL | POTASSIUM [4]: 5.72 MEQ/L | SODIUM [4]: 147.8 MEQ/L | TOTAL BILIRUBIN [4]: 0.2 mg/dL | TOTAL PROTEIN [4]: 6.07 G/DL | URIC ACID [4]: 1.37 mg/dL
